# Legend:
# Human LBAT = biological target: T1, Human LBAT (Homo sapiens, UniProt Q14973); experiment: LBAT (h/m) assay, human LBAT-overexpressing cells, 3H-taurocholic acid uptake; type: cell-based; conditions: 0.3 μM 3H-taurocholic acid and 7.5 μM cold taurocholic acid, 20 minutes, read-out: hLBAT IC50
# T1 construct: expressed in transfected cells; Geneticin-selected
# T1 sequence (Q14973 1-349): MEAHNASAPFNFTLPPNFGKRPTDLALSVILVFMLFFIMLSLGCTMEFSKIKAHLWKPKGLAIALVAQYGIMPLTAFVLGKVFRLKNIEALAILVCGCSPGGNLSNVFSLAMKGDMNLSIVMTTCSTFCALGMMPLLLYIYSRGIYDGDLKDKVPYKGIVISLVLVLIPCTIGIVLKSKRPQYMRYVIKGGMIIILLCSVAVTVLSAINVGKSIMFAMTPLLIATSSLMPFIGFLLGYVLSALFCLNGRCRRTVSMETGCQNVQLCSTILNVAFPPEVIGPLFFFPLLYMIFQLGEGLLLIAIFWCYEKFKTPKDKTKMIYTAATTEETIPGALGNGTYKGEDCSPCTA
# Procedure, shortened: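 Human LBAT-overexpressing cells, washed in FBS-free MEM-alpha, incubated 20 min at 37 °C with 10-point 3-fold inhibitor dilutions (0.2% DMSO final), 0.3 μM 3H-taurocholic acid plus 7.5 μM cold taurocholic acid (mouse LBAT: 25 μM cold). Ice stop, chilled 1 mM taurocholate washes; uptake read by scintillation counting.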
# Bioavailability studies = type: in vivo, mice; conditions: male, mouse, plasma, intravenous 1 mg/kg, oral 10 mg/kg
# Method: Male mice (C57BL/6 or CD1) or Wistar rats of 8-9 weeks old were used. For each test compound, two groups of 3 animals each were used. One group was administered a single intravenous dose of 1 mg/kg (vehicle 100% DMSO) through the tail vein and the other group was administered a single oral dose of 10 mg/kg through gavage needle. The group that was administered an oral dose was fasted overnight. Blood samples were collected after 0.083, 0.25, 0.5, 1, 2, 4, 6, 8 and 24 hours following intravenous administration, and after 0.25, 0.5, 1, 2, 4, 6, 8 and 24 hours following oral administration. Blood samples were taken from saphenous vein. 0.2% EDTA was used as the anticoagulant. The samples were analyzed by a discovery grade bioanalytical method developed for the estimation of test compound in plasma, using an LC-MS/MS system.
IC50 (Human LBAT) [nM],bioavailability (Bioavailability studies; C57BL/6 mice) [%],bioavailability (Bioavailability studies; CD1 mice) [%],SMILES
155,–,–,"CCCCC1(CC)CN(c2ccccc2)c2cc(SC)c(OCC(C)(O)C(=O)O)cc2S(=O)(=O)C1 (single isomer, unassigned) [48, diastereomer 2]"
613,–,–,"CCCCC1(CCCC)CN(c2ccccc2)c2cc(SC)c(OCC(O)C(=O)O)cc2S(=O)(=O)C1 (single isomer, unassigned) [Example 11, 3-((3,3-dibutyl-7-(methylthio)-1,1-dioxido-5-phenyl-2,3,4,5-tetrahydro-1,5-benzothiazepin-8-yl)oxy)-2-hydroxypropanoic acid]"
396,–,–,"CCCCC1(CCCC)CN(c2ccccc2)c2cc(SC)c(OCC(O)C(=O)O)cc2S(=O)(=O)C1 (racemic) [Example 9, 3-((3,3-Dibutyl-7-(methylthio)-1,1-dioxido-5-phenyl-2,3,4,5-tetrahydro-1,5-benzothiazepin-8-yl)oxy)-2-hydroxypropanoic acid]"
379,13,–,"CCCCC1(CCCC)CN(c2ccccc2)c2cc(SC)c(OCC(O)C(=O)O)cc2S(=O)(=O)C1 (single isomer, unassigned) [Example 10, 3-((3,3-dibutyl-7-(methylthio)-1,1-dioxido-5-phenyl-2,3,4,5-tetrahydro-1,5-benzothiazepin-8-yl)oxy)-2-hydroxypropanoic acid]"
2590,–,–,"CCCCC1(C)CN(c2ccccc2)c2cc(N(C)C)c(OCCC(=O)O)cc2S(=O)(=O)C1 (single isomer, unassigned) [29, enantiomer 1]"
48,–,8,"CCCCC1(CC)CN(c2ccccc2)c2cc(SC)c(OCC(C)(F)C(=O)O)cc2S(=O)(=O)C1 (single isomer, unassigned) [35, diastereomer 1]"
375,–,–,"CCCCC1(CCCC)CN(c2ccccc2)c2cc(Br)c(OCCC(=O)O)cc2S(=O)(=O)C1 [Example 4, 3-((7-Bromo-3,3-dibutyl-1,1-dioxido-5-phenyl-2,3,4,5-tetrahydro-1,5-benzothiazepin-8-yl)oxy)propanoic acid]"
2170,–,–,"CCCCC1(CC)CN(c2ccccc2)c2cc(Br)c(OCCC(=O)O)cc2S(=O)(=O)C1 (racemic) [Example 1, 3-((7-Bromo-3-butyl-3-ethyl-1,1-dioxido-5-phenyl-2,3,4,5-tetrahydro-1,5-benzothiazepin-8-yl)oxy)propanoic acid]"
2950,–,–,"CCCCC1(C)CN(c2ccccc2)c2cc(SC)c(OCC(O)C(=O)O)cc2S(=O)(=O)C1 (single isomer, unassigned) [32, diastereomer 1]"
489,–,102,"CCCCC1(CC)CN(c2ccccc2)c2cc(SC)c(OCCC(=O)O)cc2S(=O)(=O)C1 (single isomer, unassigned) [Example 13, 3-((3-butyl-3-ethyl-7-(methylthio)-1,1-dioxido-5-phenyl-2,3,4,5-tetrahydro-1,5-benzothiazepin-8-yl)oxy)propanoic acid]"
596,–,–,"CCCCC1(C)CN(c2ccccc2)c2cc(SC)c(OCCC(=O)O)cc2S(=O)(=O)C1 (single isomer, unassigned) [Example 24, 3-((3-butyl-3-methyl-7-(methylthio)-1,1-dioxido-5-phenyl-2,3,4,5-tetrahydro-1,5-benzothiazepin-8-yl)oxy)propanoic acid]"
375,104,–,"CCCCC1(CC)CN(c2ccccc2)c2cc(Br)c(OCCC(=O)O)cc2S(=O)(=O)C1 (single isomer, unassigned) [Example 2, 3-((7-bromo-3-butyl-3-ethyl-1,1-dioxido-5-phenyl-2,3,4,5-tetrahydro-1,5-benzothiazepin-8-yl)oxy)propanoic acid]"
28,–,–,"CCCCC1(CC)CN(c2ccccc2)c2cc(SC)c(OCC(C)(F)C(=O)O)cc2S(=O)(=O)C1 (centres unmarked) [Example 34, 3-((3-butyl-3-ethyl-7-(methylthio)-1,1-dioxido-5-phenyl-2,3,4,5-tetrahydro-1,5-benzothiazepin-8-yl)oxy)-2-fluoro-2-methylpropanoic acid]"
283,–,–,"CCCCC1(CC)CN(c2ccccc2)c2cc(Cl)c(OC(C)CC(=O)O)cc2S(=O)(=O)C1 (single isomer, unassigned) [30, diastereomer 1]"
410,–,–,"CCCCC1(CC)CN(c2ccccc2)c2cc(Cl)c(OCCC(=O)O)cc2S(=O)(=O)C1 (single isomer, unassigned) [Example 6, 3-((3-butyl-7-chloro-3-ethyl-1,1-dioxido-5-phenyl-2,3,4,5-tetrahydro-1,5-benzothiazepin-8-yl)oxy)propanoic acid]"
1930,–,–,"CCCCC1(CCCC)CN(c2ccccc2)c2cc(SC)c(OCCC(=O)O)cc2S(=O)(=O)C1 [Example 15, 3-((3,3-dibutyl-7-(methylthio)-1,1-dioxido-5-phenyl-2,3,4,5-tetrahydro-1,5-benzothiazepin-8-yl)oxy)propanoic acid]"
